Results as given in PubChem BioAssay AID1963965 (Molecular Pharmacology Branch, DTP, NCI, 2024).

Test system: 996289-038-R-J1-PDC spheroid viability
Assay: Anticancer human tumor 996289-038-R-J1-PDC patient-derived colon adenocarcinoma cell line growth inhibition [PI3K]
Settings: spheroids with HUVEC and MSC; for IC50: curve of first compound; for viability, T/C: stronger effect = lower value
Source text: Combinatorial screen of targeted agents with the PI3K inhibitors inavolisib, alpelisib, duvelisib, and copanlisib in multi-cell type tumor spheroids
A high-throughput screen of multi-cell type tumor spheroids was designed to identify active combinations of targeted small molecules and PI3K pathway inhibitors. Complex spheroids include a stromal component modeled by human endothelial cells (HUVEC) and fibroblasts modeled by human mesenchymal stem cells (MSCs). The concentration ranges selected for each drug and investigational agent were based upon clinically achievable concentrations if the clinical Cmax of the agent was known.
Compounds. The drugs and investigational agents: inavolisib (NSC800729), alpelisib (NSC765974), duvelisib (NSC772469), copanlisib (NSC816437), ipatasertib (NSC767898), afuresertib (NSC778305), talazoparib (NSC767125), sapanisertib (NSC764658), selumetinib (NSC741078), tovorafenib (DAY101, NSC766906), vemurafenib (NSC761431), ravoxertinib (NSC781343), sotorasib (NSC818433), MRTX1133 (NSC 836407), abemaciclib (NSC 768073), palbociclib (NSC758247), venetoclax (NSC 766270), SY5609 (NSC837396), enzalutamide (NSC755605), and darolutamide (NSC825331), were obtained from the National Cancer Institute (NCI) Developmental Therapeutics Program Chemical Repository. The FDA-approved anticancer drug set is available from the NCI Developmental Therapeutics Program. […] The stock solutions were prepared in dimethyl sulfoxide (DMSO, Sigma-Aldrich, St. Louis, MO, cat. D2650) at 800-fold the tested concentration and stored at -70 degrees C prior to their use. All drugs and investigational agents were tested over a range starting from a high concentration at or near the clinical Cmax and decreasing in half-log increments. If the clinical Cmax for an agent had not been determined, the highest concentration tested was 10 microM.
Cell Culture. All cells were maintained in an incubator at 37 degrees C and 5% CO2 with 95% humidity. The PDC lines were cultured according to standard operating procedures established by the NCI PDMR (https://pdmr.cancer.gov/sops/default.htm). All PDCs were thawed and cultured in Matrigel-coated flasks prepared with a working solution of 1X Ham's F-12 nutrient mix, without supplementation (Invitrogen, Waltham, MA, cat. 11765054), 100 U/mL penicillin-streptomycin (Invitrogen, cat. 15140122), and 2.5% Matrigel (Corning Inc., Corning, NY, cat. 354248) for the first three passages. The 354836-022-R-J1-PDC, 475296-252-R-J1-PDC, and 997726-040-R-J2-PDC lines were cultured in 6A media, which includes advanced DMEM/F-12 (Thermo Fisher Scientific, cat. 12634028), 10 mM HEPES (Thermo Fisher Scientific, cat. 15630080), 1X GlutaMAX supplement (Thermo Fisher Scientific, cat. 35050061), 0.1 mg/mL primocin (InvivoGen, San Diego, CA, cat. ant-pm-2), 10% defined fetal bovine serum, heat inactivated (HyClone Laboratories Inc., Logan, UT, cat. SH30070.03HI), 50% L-WRN conditioned media (ATCC, cat. CRL-3276), 1.25 mM N-Acetyl-L-cysteine (Sigma-Aldrich, cat. A9165), 10 mM nicotinamide (Sigma-Aldrich, cat. N0636), 1X B-27 supplement (Thermo Fisher Scientific, cat. 17504044), 1X N-2 supplement (Thermo Fisher Scientific, cat. 17502048), and 10 microM Y-27632 dihydrochloride (Tocris Bioscience, Bristol, United Kingdom, cat. 1254). The 624824-186-R-J2-PDC line was cultured in 6C/Colon 1B media, which includes all 6A media components plus 50 ng/mL human EGF recombinant protein (Thermo Fisher Scientific, cat. PHG0311). […]

[1] = second compound 0.00316 µM, first compound 0.0316 µM
[2] = second compound 0.00316 µM, first compound 0.1 µM
[3] = second compound 0.01 µM, first compound 0.0316 µM
[4] = second compound 0.01 µM, first compound 0.1 µM
[5] = second compound 0.0316 µM, first compound 0.0316 µM
[6] = second compound 0.0316 µM, first compound 0.1 µM
[7] = second compound 0.1 µM, first compound 0.0316 µM
[8] = second compound 0.1 µM, first compound 0.1 µM
[9] = second compound 0.316 µM, first compound 0.0316 µM
[10] = second compound 0.316 µM, first compound 0.1 µM
[11] = second compound 1 µM, first compound 0.0316 µM
[12] = second compound 1 µM, first compound 0.1 µM
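Also: spheroids exposed to compounds for seven days before viability read.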
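For viability, T/C in this document: luminescence used as a proxy for viable cell amount; percent viability relative to DMSO vehicle control as 100%.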

With `CC(=O)c1c(C)c2cnc(Nc3ccc(N4CCNCC4)cn3)nc2n(C2CCCC2)c1=O` + CC(Nc1ccc2c(c1)OCCn1cc(N3C(=O)OCC3C(F)F)nc1-2)C(N)=O the IC50 (second compound 0.00316 µM) was > 0.1 µM, the IC50 (second compound 0.01 µM) was > 0.1 µM and the IC50 (second compound 0.0316 µM) was > 0.1 µM. For the same compound, the IC50 (second compound 0.1 µM) was > 0.1 µM, the IC50 (second compound 0.316 µM) was > 0.1 µM and the IC50 (second compound 1 µM) was 0.0796 µM. For the same compound, the viability, T/C (second compound 0.00316 µM, first compound 0.000316 µM) was 89.9%, the viability, T/C (second compound 0.00316 µM, first compound 0.001 µM) was 106% and the viability, T/C (second compound 0.00316 µM, first compound 0.00316 µM) was 103%. It also gave a viability, T/C (second compound 0.00316 µM, first compound 0.01 µM) of 93.9%, a viability, T/C [1] of 96.5% and a viability, T/C [2] of 93.3%. For the same compound, the viability, T/C (second compound 0.01 µM, first compound 0.000316 µM) was 105%, the viability, T/C (second compound 0.01 µM, first compound 0.001 µM) was 90.5% and the viability, T/C (second compound 0.01 µM, first compound 0.00316 µM) was 101%. It also gave a viability, T/C (second compound 0.01 µM, first compound 0.01 µM) of 96.4%, a viability, T/C [3] of 96.7% and a viability, T/C [4] of 92%. For the same compound, the viability, T/C (second compound 0.0316 µM, first compound 0.000316 µM) was 101%, the viability, T/C (second compound 0.0316 µM, first compound 0.001 µM) was 85.3% and the viability, T/C (second compound 0.0316 µM, first compound 0.00316 µM) was 95.8%. The viability, T/C (second compound 0.0316 µM, first compound 0.01 µM) was 87.5%, the viability, T/C [5] was 92.8% and the viability, T/C [6] was 81.2%. The viability, T/C (second compound 0.1 µM, first compound 0.000316 µM) was 82.2%, the viability, T/C (second compound 0.1 µM, first compound 0.001 µM) was 70% and the viability, T/C (second compound 0.1 µM, first compound 0.00316 µM) was 85.3%. For the same compound, the viability, T/C (second compound 0.1 µM, first compound 0.01 µM) was 92.5%, the viability, T/C [7] was 87.8% and the viability, T/C [8] was 76.5%. It also gave a viability, T/C (second compound 0.316 µM, first compound 0.000316 µM) of 73%, a viability, T/C (second compound 0.316 µM, first compound 0.001 µM) of 81.6% and a viability, T/C (second compound 0.316 µM, first compound 0.00316 µM) of 63.4%. For the same compound, the viability, T/C (second compound 0.316 µM, first compound 0.01 µM) was 64.8%, the viability, T/C [9] was 70.9% and the viability, T/C [10] was 68.8%. It also gave a viability, T/C (second compound 1 µM, first compound 0.000316 µM) of 58.7%, a viability, T/C (second compound 1 µM, first compound 0.001 µM) of 72.5% and a viability, T/C (second compound 1 µM, first compound 0.00316 µM) of 58.9%. The viability, T/C (second compound 1 µM, first compound 0.01 µM) was 57.7%, the viability, T/C [11] was 57.8% and the viability, T/C [12] was 48.2%.
`CNC(=O)c1ccc(N2C(=S)N(c3ccc(C#N)c(C(F)(F)F)c3)C(=O)C2(C)C)cc1F` + CC(Nc1ccc2c(c1)OCCn1cc(N3C(=O)OCC3C(F)F)nc1-2)C(N)=O was tested, and the IC50 (second compound 0.00316 µM) was > 10 µM, the IC50 (second compound 0.01 µM) was > 10 µM and the IC50 (second compound 0.0316 µM) was > 10 µM. The IC50 (second compound 0.1 µM) was > 10 µM, the IC50 (second compound 0.316 µM) was > 10 µM and the IC50 (second compound 1 µM) was > 10 µM. It also gave a viability, T/C [1] of 82.9%, a viability, T/C [2] of 95.5% and a viability, T/C (second compound 0.00316 µM, first compound 0.316 µM) of 103%. It also gave a viability, T/C (second compound 0.00316 µM, first compound 1 µM) of 93.1%, a viability, T/C (second compound 0.00316 µM, first compound 3.16 µM) of 89% and a viability, T/C (second compound 0.00316 µM, first compound 10 µM) of 110%. For the same compound, the viability, T/C [3] was 100%, the viability, T/C [4] was 88.6% and the viability, T/C (second compound 0.01 µM, first compound 0.316 µM) was 100%. The viability, T/C (second compound 0.01 µM, first compound 1 µM) was 88.2%, the viability, T/C (second compound 0.01 µM, first compound 3.16 µM) was 98.2% and the viability, T/C (second compound 0.01 µM, first compound 10 µM) was 102%. The viability, T/C [5] was 98.3%, the viability, T/C [6] was 81.9% and the viability, T/C (second compound 0.0316 µM, first compound 0.316 µM) was 80.1%. For the same compound, the viability, T/C (second compound 0.0316 µM, first compound 1 µM) was 87.9%, the viability, T/C (second compound 0.0316 µM, first compound 3.16 µM) was 92.1% and the viability, T/C (second compound 0.0316 µM, first compound 10 µM) was 86.4%. The viability, T/C [7] was 79.4%, the viability, T/C [8] was 85.4% and the viability, T/C (second compound 0.1 µM, first compound 0.316 µM) was 80.5%. The viability, T/C (second compound 0.1 µM, first compound 1 µM) was 77.8%, the viability, T/C (second compound 0.1 µM, first compound 3.16 µM) was 92.9% and the viability, T/C (second compound 0.1 µM, first compound 10 µM) was 72%. The viability, T/C [9] was 65.1%, the viability, T/C [10] was 70.8% and the viability, T/C (second compound 0.316 µM, first compound 0.316 µM) was 73.3%. For the same compound, the viability, T/C (second compound 0.316 µM, first compound 1 µM) was 74.2%, the viability, T/C (second compound 0.316 µM, first compound 3.16 µM) was 70.3% and the viability, T/C (second compound 0.316 µM, first compound 10 µM) was 64%. The viability, T/C [11] was 55.5%, the viability, T/C [12] was 59.3% and the viability, T/C (second compound 1 µM, first compound 0.316 µM) was 60.4%. For the same compound, the viability, T/C (second compound 1 µM, first compound 1 µM) was 61.5%, the viability, T/C (second compound 1 µM, first compound 3.16 µM) was 51.9% and the viability, T/C (second compound 1 µM, first compound 10 µM) was 53.5%.
